# Measurements as given in patent publication US7432247B2, “Methods of cardioprotection using dichloroacetate in combination with an inotrope” (The Governors of the University of Alberta, priority 2002, dated 2008).
# Where “and” joins values, the source holds several entries; their conditions need not be identical. Equal entries are not always repeated.
# Columns and labels:
# Assay type in all cases: in vivo, human
# [1] = Pediatric heart surgery study, DCA bolus and infusion vs placebo: inotrope score, ICU time, ventilator time (Example C); design: reduction of Inotrope Score compared to placebo: concentration or dose not given beside the values; conditions: for average decrease in Inotrope Score per patient compared to placebo: over the 24 hour period
# Procedure: This study was a randomized, placebo-controlled, double blinded, single surgeon, study of the use of DCA in 51 high-risk pediatric patients requiring heart surgery to correct complex congenital heart lesions.
# (§1) In this trial, 53 infants were recruited to participate in a study, of which 51 patients met inclusion criteria after parental consent. Two dosing groups resulted from the study team changing the dosing protocol after the data from the initial 10 patients were analyzed. The data from patients number 1 to number 10 was analyzed for DCA therapeutic blood levels and therapeutic effect. A recommendation by the research team was made to increase the bolus dose of DCA and to decrease the infusion dose of DCA to maintain a DCA dose range of 1 mM for 24 hours. The intent was to administer the new protocol at patient number 20. The 1997 Epicore power calculations were based on separation of the study groups patients into group A of n=20 patients and Group B of n=31 patients
# (§2) DCA (50 mg/kg) or placebo was injected into the aortic root immediately prior to removing aortic cross clamp. The coded solutions were made such that a dose of 1 ml/kg provided either a DCA therapeutic level of 1 mM plasma concentration of DCA, or a placebo solution. Immediately thereafter, an infusion of DCA at 25 mg/kg/hr or placebo in the same volume was initiated and run for 24 hours. Based on the pharmacokinetics of DCA, this was expected to maintain plasma levels of DCA in the therapeutic range of (0.2-1 mM). However, the plasma concentrations of DCA were below 1 mM after the first hour interval, and that the 24 hour plasma concentrations were elevated above 1 mM DCA levels at the 24 hour interval, a decision was made to modify the dosing protocol. This change in dosing protocol was approved by the Ethics Committee, but not implemented until patient number 24. All blood samples were analyzed by HPLC for DCA concentration. • (ii) Group B
# (§3) DCA (100 mg/kg) or placebo was injected into the aortic root immediately prior to removing aortic cross clamp. The coded solutions were made such that a dose of 1 ml/kg provided either a DCA therapeutic level of 1 mM plasma concentration of DCA, or a placebo solution. Immediately thereafter, an infusion of DCA at 12.5 mg/kg/hr or placebo in the same volume was initiated and run for 24 hours. Based on the pharmacokinetics of DCA, this was expected to maintain plasma levels of DCA in the therapeutic range of (0.2-1 mM). All blood samples were analyzed by HPLC for DCA concentration.
# In both the operating room at the end of cardiopulmonary bypass and in the intensive care unit, parenteral drugs were scored on an hourly basis with 1 point allotted for each level for each bolus or infusion given within the previous hour within the first 24 hours post-operatively. Thus at the end of 24 hours, high scores indicated poorer cardiac function.
# [2] = Mortality in the adult CABG study (Example A); conditions: DCA group, 8 adult patients, 50 mg/kg bolus
# Procedure: DCA or saline was administered to 18 patients undergoing elective cardiac bypass grafting surgery (CABG) in a double blinded randomized manner DCA (50 mg/kg in 100 ml of saline) or placebo was injected into the aortic root, immediately prior to removing aortic cross clamp. Based on the pharmacokinetics of DCA, we anticipated that this would produce a plasma concentration of approximately 1 mM. The study consisted of 8 DCA-treated patients and 10 placebo-treated patients.
# The intervention involved DCA (50 mg/kg) or placebo injected into the aortic root immediately prior to removing aortic cross clamp. The coded solution was made such that a dose of 1 ml/kg provides the appropriate dose of DCA or placebo. Based on the pharmacokinetics of DCA, this was expected to result in a plasma level of DCA in the therapeutic range of (1 mM). All blood samples were analyzed by HPLC for DCA concentration.
# [3] = Observed side effects of DCA in patients
# [4] = Plasma DCA levels after 50 mg/kg bolus in adult CABG patients (Example A); conditions: 50 mg/kg Na+ dichloroacetate, 1 hour following administration, n = 8 adult patients
# Procedure: […] Based on the pharmacokinetics of DCA, we anticipated that this would produce a plasma concentration of approximately 1 mM. The study consisted of 8 DCA-treated patients and 10 placebo-treated patients.
# […] The coded solution was made such that a dose of 1 ml/kg provides the appropriate dose of DCA or placebo. Based on the pharmacokinetics of DCA, this was expected to result in a plasma level of DCA in the therapeutic range of (1 mM). All blood samples were analyzed by HPLC for DCA concentration.
# Plasma samples were processed for DCA levels using a high performance liquid chromatography (HPLC) technique that separated the DCA from other plasma constituents. In brief, 20 μl of plasma sample was injected into a Beckman Gold HPLC containing a IonoBpher 5A column (250×4.6 mm LxID) and a AX Guard Column. The mobile phase of the column consisted of 10^-3 M pyromellitate buffer (pH=4.0). The flow rate of the HPLC was set at 3.0 ml/min and the DCA eluted from the column was detected by comparing DCA elution times to acetate, monochloroacetate, and trichloroacetate standards. Heart ventricular biopsy samples were taken at 0, and 20 minutes, and at 1 hour, following release of the cross clamp and reperfusion of the heart muscle, and immediately frozen in liquid N2. Blood samples were also taken at various intervals during the reperfusion period between 0 to 24 hours post-surgery.
# [5] = DCA plasma levels in pediatric heart surgery patients, bolus and 24 hour infusion (Example C); conditions: for Average Optimum Mean of DCA Plasma Levels, mM at 1 hr / Average Optimum Mean of DCA Plasma Levels, mM at 6 hr / Average Optimum Mean of DCA Plasma Levels, mM at 12 hr / Average Optimum Mean of DCA Plasma Levels, mM at 24 hr: patients with greatest degree of clinical benefits
# Procedure: as §1, §2, §3
# Arterial blood samples were obtained from patients at the following times:
# c. One hour after discontinuing cardiopulmonary bypass.
# d. Six hours after discontinuing cardiopulmonary bypass
# e. Twelve hours after discontinuing cardiopulmonary bypass.
# f. Twenty four hours after discontinuing cardiopulmonary bypass.
# Blood samples were collected from indwelling arterial lines into citrate-containing tubes (0.5 ml blood samples). The samples were spun in the microfuge, the plasma separated, and frozen immediately for later analysis. All plasma samples were stored at −80 degrees centigrade, until further processing. Plasma glucose and lactate were determined using a Sigma glucose kit and a spectrophotometric assay involving lactate dehydrogenase respectively. Plasma fatty acid levels were measured using an ELISA system and WAKO free fatty acid kit.
# [6] = Group A: 50 mg/kg bolus and 25 mg/kg/hour infusion
# [7] = Group A: 50 mg/kg bolus and 25 mg/kg/hour infusion, 23 patients
# [8] = Group B: 100 mg/kg bolus and 12.5 mg/kg/hour infusion
# [9] = Group B: 100 mg/kg bolus and 12.5 mg/kg/hour infusion, 24 patients
# [10] = Group A: 50 mg/kg bolus and 25 mg/kg/hr infusion
# [11] = Group B: 100 mg/kg bolus and 12.5 mg/kg/hr infusion
smiles,measurement,setting,value
"O=C(O)C(Cl)Cl [DCA, dichloroacetate]",decrease of ventilator time compared to placebo,[1]; [6],47%
same,reduction of ventilator time compared to placebo,[1]; [6],46 h
same,decrease of time in ICU compared to placebo,[1]; [7],41%
same,reduction of time in ICU compared to placebo,[1]; [7],60 h
same,reduction of Inotrope Score compared to placebo,"[1]; Group A, by 1 hour",50%
same,reduction of Inotrope Score compared to placebo,"[1]; Group A, by 12 hours",45%
same,reduction of Inotrope Score compared to placebo,"[1]; Group A, by 24 hours",38%
same,average decrease in Inotrope Score per patient compared to placebo,[1]; Group A,44%
same,decrease of ventilator time compared to placebo,[1]; [8],23%
same,reduction of ventilator time compared to placebo,[1]; [8],18 h and 19 h
same,decrease of time in ICU compared to placebo,[1]; [9],40%
same,reduction of time in ICU compared to placebo,[1]; [9],50 h
same,reduction of Inotrope Score compared to placebo,"[1]; Group B, by 1 hour",57%
same,reduction of Inotrope Score compared to placebo,"[1]; Group B, by 12 hours",49%
same,reduction of Inotrope Score compared to placebo,"[1]; Group B, by 24 hours",45%
same,average decrease in Inotrope Score per patient compared to placebo,[1]; Group B,51%
same,mortality,[2],no mortalities
same,side-effects,[3]; patients,"not have significant side-effects, although some patients experience mild drowsiness"
same,adverse effects in previous (pilot) studies,[3]; previous studies,no adverse effects
same,Plasma Dichloroacetate Levels,[4],approximately 1 mM
same,Plasma Dichloroacetate Levels,[4]; listed as Dichloroacetate,0.948 ± 0.061 mM
same,optimum mean DCA plasma level,"[5]; Example C, Group B, 1 to 6 hour interval",1 mM
same,"Average DCA Plasma Levels, mM at 6 hr",[5]; [10],1.134 mM
same,"Average DCA Plasma Levels, mM at 12 hr",[5]; [10],1.771 mM
same,"Average Optimum Mean of DCA Plasma Levels, mM at 1 hr",[5]; [10],1.0 mM
same,"Average Optimum Mean of DCA Plasma Levels, mM at 6 hr",[5]; [10],0.916 mM
same,"Average Optimum Mean of DCA Plasma Levels, mM at 12 hr",[5]; [10],1.52 mM and 1.523 mM
same,"Average Optimum Mean of DCA Plasma Levels, mM at 24 hr",[5]; [10],2.29 mM and 2.288 mM
same,"Average DCA Plasma Levels, mM at 1 hr",[5]; [11],1.131 mM
same,"Average DCA Plasma Levels, mM at 6 hr",[5]; [11],.894 mM
same,"Average DCA Plasma Levels, mM at 12 hr",[5]; [11],1.427 mM
same,"Average DCA Plasma Levels, mM at 24 hr",[5]; [11],2.231 mM
same,"Average Optimum Mean of DCA Plasma Levels, mM at 1 hr",[5]; [11],1.012 mM
same,"Average Optimum Mean of DCA Plasma Levels, mM at 6 hr",[5]; [11],1.0 mM
same,"Average Optimum Mean of DCA Plasma Levels, mM at 12 hr",[5]; [11],1.0 mM
same,"Average Optimum Mean of DCA Plasma Levels, mM at 24 hr",[5]; [11],1.0 mM
